Reference: ChEMBL document CHEMBL4304757, “Synthetic heterocyclic candidates as promising α-glucosidase inhibitors: An overview” (Eur J Med Chem, 2019)

biological target: T1, Alpha glucosidase (Homo sapiens, UniProt O43451+P10253+P14410+Q2M2H8); test: Inhibition of alpha-glucosidase (unknown origin); type: protein assay

Row | IC50 [µM] | Structure (SMILES)
1 | 4.3 to 43 | O=C(C[C@@H](c1cccs1)c1c[nH]c2ccccc12)c1ccc2ccccc2c1
2 | 20 to 292 | Cn1cc(C(c2ccc(-c3nnc(-c4c[nH]c5ccccc45)o3)cc2)c2cn(C)c3ccccc23)c2ccccc21
3 | 20 to 292 | Cn1cc(-c2nnc(-c3ccc(C(c4cn(C)c5ccccc45)c4cn(C)c5ccccc45)cc3)o2)c2ccccc21
4 | 15 to 48 | COc1ccc(NC(=O)Cn2cc(Cn3c(-c4cccc(Cl)c4)nc(-c4ccccc4)c3-c3ccccc3)nn2)cc1
5 | 2.2 | O=C(Cc1ccc(Cl)cc1Cl)N/N=C1\C(=O)Nc2cc(Br)ccc21

biological target: T1, Alpha glucosidase; test: Inhibition of alpha-glucosidase (unknown origin) using p-nitrophenyl-alpha-d-glucopyranoside as substrate preincubated for 15 mins followed by substrate addition measured after 30 mins; type: protein assay

Row | IC50 [µM] | Structure (SMILES)
6 | 0.1 to 5.1 | Cc1ccc(C(c2c[nH]c3ccc(C(=O)NNS(=O)(=O)c4ccc(Cl)c(Cl)c4)cc23)c2c[nH]c3ccc(C(=O)NNS(=O)(=O)c4ccc(Cl)c(Cl)c4)cc23)cc1
7 | 2.8 to 14 | O=C(CSc1nnc(-c2ccc(F)cc2)c(-c2ccc(F)cc2)n1)Nc1nc(-c2ccc(F)cc2)cs1
8 | 14 to 218 | COc1cc(-c2ccc(C)cc2)ccc1O[C@H](C)Cn1cc(-c2ccc(C(F)(F)F)cc2)nn1
9 | 5.3 to 35 | Cc1cc(C)c2c(c1)/C(=N/Nc1nc(-c3ccc(F)cc3)cs1)C(=O)N2
10 | 2.8 to 14 | Cc1ccc(-c2csc(NC(=O)CSc3nnc(-c4ccc(F)cc4)c(-c4ccc(F)cc4)n3)n2)cc1
11 | 32 to 148 | O=c1ccc2ccc(OCC(O)CSc3nnc(-c4ccco4)c(-c4ccco4)n3)cc2o1 (stereo not given)
12 | 2.1 | Cc1ccc(C(c2c[nH]c3ccc(C(=O)NNS(=O)(=O)c4ccc([N+](=O)[O-])cc4)cc23)c2c[nH]c3ccc(C(=O)NNS(=O)(=O)c4ccc([N+](=O)[O-])cc4)cc23)cc1
13 | 0.1 to 5.1 | Cc1ccc(C(c2c[nH]c3ccc(C(=O)NNS(=O)(=O)c4ccc(Br)cc4)cc23)c2c[nH]c3ccc(C(=O)NNS(=O)(=O)c4ccc(Br)cc4)cc23)cc1
14 | 5.3 to 35 | COc1ccc(-c2csc(N/N=C3\C(=O)N(Cc4ccccc4F)c4ccc(C)cc43)n2)cc1
15 | 5.3 to 35 | Cc1ccc(-c2csc(N/N=C3\C(=O)Nc4c(C)cc(C)cc43)n2)cc1
16 | 5.9 to 145 | CC(C)Cn1cc(C2(c3cn(CC(C)C)c4ccccc34)C(=O)Nc3ccccc32)c2ccccc21
17 | 0.5 | Cc1ccc(C(c2c[nH]c3ccc(C(=O)NNS(=O)(=O)c4ccc([N+](=O)[O-])cc4[N+](=O)[O-])cc23)c2c[nH]c3ccc(C(=O)NNS(=O)(=O)c4ccc([N+](=O)[O-])cc4[N+](=O)[O-])cc23)cc1
18 | 14 to 218 | COc1cc(-c2ccc(F)cc2)ccc1O[C@H](C)Cn1cc(-c2ccc(C(F)(F)F)cc2)nn1
19 | 32 to 148 | O=c1ccc2ccc(OCC(O)CSc3nnc(-c4cccc(F)c4)c(-c4cccc(F)c4)n3)cc2o1 (stereo not given)
20 | 5.9 to 145 | CC(C)n1cc(C2(c3cn(C(C)C)c4ccccc34)C(=O)Nc3ccccc32)c2ccccc21
21 | 5.3 to 35 | O=C1Nc2ccc(Cl)cc2/C1=N/Nc1nc(-c2ccc(Br)cc2)cs1
22 | 5.9 to 145 | O=C1Nc2ccccc2C1(c1cn(Cc2ccccc2Cl)c2ccccc12)c1cn(Cc2ccccc2Cl)c2ccccc12
23 | 2.8 to 14 | Cc1ccc(-c2csc(NC(=O)CSc3nnc(-c4ccc(Br)cc4)c(-c4ccc(Br)cc4)n3)n2)cc1
24 | 2.1 | Cc1ccc(C(c2c[nH]c3ccc(C(=O)NNS(=O)(=O)c4cccc([N+](=O)[O-])c4)cc23)c2c[nH]c3ccc(C(=O)NNS(=O)(=O)c4cccc([N+](=O)[O-])c4)cc23)cc1
25 | 14 to 218 | COc1cc(Br)ccc1O[C@H](C)Cn1cc(-c2ccc(F)cc2)nn1
26 | 0.1 to 5.1 | Cc1ccc(C(c2c[nH]c3ccc(C(=O)NNS(=O)(=O)c4cc(Cl)ccc4Cl)cc23)c2c[nH]c3ccc(C(=O)NNS(=O)(=O)c4cc(Cl)ccc4Cl)cc23)cc1
27 | 5.9 to 145 | CCCCn1cc(C2(c3cn(CCCC)c4ccccc34)C(=O)Nc3ccccc32)c2ccccc21
28 | 5.3 to 35 | Cc1ccc2c(c1)/C(=N/Nc1nc(-c3ccc(O)cc3)cs1)C(=O)N2
29 | 2.8 to 14 | Cc1ccc(-c2csc(NC(=O)CSc3nnc(-c4ccccc4)c(-c4ccccc4)n3)n2)cc1
30 | 0.1 to 5.1 | Cc1ccc(C(c2c[nH]c3ccc(C(=O)NNS(=O)(=O)c4ccccc4Cl)cc23)c2c[nH]c3ccc(C(=O)NNS(=O)(=O)c4ccccc4Cl)cc23)cc1

Row | IC50 [µM] | Structure (SMILES)
31 | 32 to 148 | O=c1oc2ccccc2cc1OCC(O)CSc1nnc(-c2ccc(F)cc2)c(-c2ccc(F)cc2)n1 (stereo not given)
32 | 5.3 to 35 | COc1ccc(-c2csc(N/N=C3\C(=O)N(C)c4ccccc43)n2)cc1
33 | 5.9 to 145 | O=C1Nc2ccccc2C1(c1c[nH]c2ccccc12)c1c[nH]c2ccccc12
34 | 5.3 | Cc1ccc2c(c1)/C(=N/Nc1nc(-c3ccc(O)cc3)cs1)C(=O)N2Cc1ccccc1F
35 | 2.8 to 14 | O=C(CSc1nnc(-c2ccc(F)cc2)c(-c2ccc(F)cc2)n1)Nc1nc(-c2ccc(Cl)cc2)cs1
36 | 14 to 218 | COC(=O)c1cn(C[C@@H](C)Oc2ccc(Br)cc2OC)nn1
37 | 0.3 to 2.5 | Cc1ccc(C(c2c[nH]c3ccc(C(=O)NNS(=O)(=O)c4cc(Cl)c(Cl)cc4Cl)cc23)c2c[nH]c3ccc(C(=O)NNS(=O)(=O)c4cc(Cl)c(Cl)cc4Cl)cc23)cc1
38 | 2.8 to 14 | O=C(CSc1nnc(-c2ccccc2)c(-c2ccccc2)n1)Nc1nc(-c2ccc(F)cc2)cs1
39 | 14 | COc1ccc(-c2ccc(O[C@H](C)Cn3cc(-c4ccc(C(F)(F)F)cc4)nn3)c(OC)c2)cc1
40 | 5.9 to 145 | Cn1cc(C2(c3cn(C)c4ccccc34)C(=O)Nc3ccccc32)c2ccccc21
41 | 2.8 to 14 | O=C(CSc1nnc(-c2ccccc2)c(-c2ccccc2)n1)Nc1nc(-c2ccc(Cl)cc2)cs1
42 | 5.9 to 145 | O=C1Nc2ccc(Br)cc2C1(c1c[nH]c2ccccc12)c1c[nH]c2ccccc12
43 | 5.9 to 145 | O=C1Nc2ccccc2C1(c1cn(Cc2ccccc2)c2ccccc12)c1cn(Cc2ccccc2)c2ccccc12
44 | 5.3 to 35 | O=C1Nc2ccccc2/C1=N/Nc1nc(-c2ccc(F)cc2)cs1
45 | 2.8 to 14 | COc1ccc(-c2csc(NC(=O)CSc3nnc(-c4ccccc4)c(-c4ccccc4)n3)n2)cc1
46 | 2.8 to 14 | O=C(CSc1nnc(-c2ccc(Br)cc2)c(-c2ccc(Br)cc2)n1)Nc1nc(-c2ccc(Cl)cc2)cs1
47 | 0.1 to 5.1 | Cc1ccc(C(c2c[nH]c3ccc(C(=O)NNS(=O)(=O)c4cc(Cl)cc(Cl)c4)cc23)c2c[nH]c3ccc(C(=O)NNS(=O)(=O)c4cc(Cl)cc(Cl)c4)cc23)cc1
48 | 14 to 218 | COc1cc(Br)ccc1O[C@H](C)Cn1cc(-c2ccc(C(F)(F)F)cc2)nn1
49 | 32 to 148 | O=c1ccc2ccc(OCC(O)CSc3nnc(-c4ccccc4)c(-c4ccccc4)n3)cc2o1 (stereo not given)
50 | 2.8 to 14 | O=C(CSc1nnc(-c2ccc(F)cc2)c(-c2ccc(F)cc2)n1)Nc1nc(-c2ccccc2)cs1
51 | 2.8 to 14 | O=C(CSc1nnc(-c2ccc(F)cc2)c(-c2ccc(F)cc2)n1)Nc1nc(-c2ccc(Br)cc2)cs1
52 | 32 to 148 | O=c1ccc2ccc(OCC(O)CSc3nnc(-c4ccc(F)cc4)c(-c4ccc(F)cc4)n3)cc2o1 (stereo not given)
53 | 5.3 to 35 | O=C1Nc2ccc(F)cc2/C1=N/Nc1nc(-c2ccc(F)cc2)cs1
54 | 5.9 to 145 | O=C1Nc2ccccc2C1(c1cn(Cc2cccc(F)c2)c2ccccc12)c1cn(Cc2cccc(F)c2)c2ccccc12
55 | 14 to 218 | COc1cc(-c2ccc([N+](=O)[O-])cc2)ccc1O[C@H](C)Cn1cc(-c2ccc(C(F)(F)F)cc2)nn1

Row | IC50 [µM] | Structure (SMILES)
56 | 5.9 to 145 | O=C1Nc2ccccc2C1(c1cn(Cc2ccc(Br)cc2)c2ccccc12)c1cn(Cc2ccc(Br)cc2)c2ccccc12
57 | 5.3 to 35 | O=C1Nc2ccccc2/C1=N/Nc1nc(-c2ccc(Cl)cc2)cs1
58 | 5.3 to 35 | Cc1ccc(-c2csc(N/N=C3\C(=O)N(C)c4ccccc43)n2)cc1
59 | 2.8 to 14 | O=C(CSc1nnc(-c2ccccc2)c(-c2ccccc2)n1)Nc1nc(-c2ccccc2)cs1
60 | 5.9 to 145 | Cc1ccc2c(c1)C(c1c[nH]c3ccccc13)(c1c[nH]c3ccccc13)C(=O)N2
61 | 2.8 to 14 | O=C(CSc1nnc(-c2ccccc2)c(-c2ccccc2)n1)Nc1nc(-c2ccc(Br)cc2)cs1
62 | 32 | O=c1oc2ccccc2cc1OCC(O)CSc1nnc(-c2cccc(Br)c2)c(-c2cccc(Br)c2)n1 (stereo not given)
63 | 5.3 to 35 | Cc1ccc(-c2csc(N/N=C3\C(=O)Nc4ccc(F)cc43)n2)cc1
64 | 0.1 to 5.1 | Cc1ccc(C(c2c[nH]c3ccc(C(=O)NNS(=O)(=O)c4cccc(Cl)c4Cl)cc23)c2c[nH]c3ccc(C(=O)NNS(=O)(=O)c4cccc(Cl)c4Cl)cc23)cc1
65 | 14 to 218 | COc1cc(Br)ccc1O[C@H](C)Cn1cc(-c2ccccc2)nn1
66 | 5.9 | O=C1Nc2ccccc2C1(c1cn(Cc2ccccc2F)c2ccccc12)c1cn(Cc2ccccc2F)c2ccccc12
67 | 2.1 | Cc1ccc(C(c2c[nH]c3ccc(C(=O)NNS(=O)(=O)c4ccccc4[N+](=O)[O-])cc23)c2c[nH]c3ccc(C(=O)NNS(=O)(=O)c4ccccc4[N+](=O)[O-])cc23)cc1
68 | 2.8 | COc1ccc(-c2csc(NC(=O)CSc3nnc(-c4ccc(Br)cc4)c(-c4ccc(Br)cc4)n3)n2)cc1
69 | 2.8 to 14 | O=C(CSc1nnc(-c2ccc(Br)cc2)c(-c2ccc(Br)cc2)n1)Nc1nc(-c2ccc(Br)cc2)cs1
70 | 5.3 to 35 | Cc1cc(C)c2c(c1)/C(=N/Nc1nc(-c3ccc(Br)cc3)cs1)C(=O)N2
71 | 5.3 to 35 | Cc1ccc(-c2csc(N/N=C3\C(=O)N(Cc4ccccc4F)c4ccc(C)cc43)n2)cc1
72 | 2.8 to 14 | O=C(CSc1nnc(-c2ccc(Br)cc2)c(-c2ccc(Br)cc2)n1)Nc1nc(-c2ccccc2)cs1
73 | 2.8 to 14 | O=C(CSc1nnc(-c2ccc(Br)cc2)c(-c2ccc(Br)cc2)n1)Nc1nc(-c2ccc(F)cc2)cs1
74 | 0.1 to 5.1 | Cc1ccc(C(c2c[nH]c3ccc(C(=O)NNS(=O)(=O)c4ccc(C)cc4)cc23)c2c[nH]c3ccc(C(=O)NNS(=O)(=O)c4ccc(C)cc4)cc23)cc1
75 | 0.1 to 5.1 | Cc1ccc(C(c2c[nH]c3ccc(C(=O)NNS(=O)(=O)c4ccc(Cl)cc4Cl)cc23)c2c[nH]c3ccc(C(=O)NNS(=O)(=O)c4ccc(Cl)cc4Cl)cc23)cc1
76 | 5.3 to 35 | CN1C(=O)/C(=N\Nc2nc(-c3ccc(F)cc3)cs2)c2ccccc21
77 | 0.1 to 5.1 | Cc1ccc(C(c2c[nH]c3ccc(C(=O)NNS(=O)(=O)c4ccccc4Br)cc23)c2c[nH]c3ccc(C(=O)NNS(=O)(=O)c4ccccc4Br)cc23)cc1
78 | 5.3 to 35 | Cc1ccc(-c2csc(N/N=C3\C(=O)Nc4ccccc43)n2)cc1
79 | 5.9 to 145 | CCCn1cc(C2(c3cn(CCC)c4ccccc34)C(=O)Nc3ccccc32)c2ccccc21
80 | 32 to 148 | O=c1oc2ccccc2cc1OCC(O)CSc1nnc(-c2ccco2)c(-c2ccco2)n1 (stereo not given)
